From patent US7666877B2, “Ergoline derivatives” (priority 2005, dated 2010)

Tests used:
CXCR3 [1] = molecular target: T1, CXCR3 (Homo sapiens, UniProt P49682); test: biochemical; format: binding; set-up: expressed in transfected cells; host or cells: CHO cells (membrane preparation)
T1 sequence (P49682 1-368): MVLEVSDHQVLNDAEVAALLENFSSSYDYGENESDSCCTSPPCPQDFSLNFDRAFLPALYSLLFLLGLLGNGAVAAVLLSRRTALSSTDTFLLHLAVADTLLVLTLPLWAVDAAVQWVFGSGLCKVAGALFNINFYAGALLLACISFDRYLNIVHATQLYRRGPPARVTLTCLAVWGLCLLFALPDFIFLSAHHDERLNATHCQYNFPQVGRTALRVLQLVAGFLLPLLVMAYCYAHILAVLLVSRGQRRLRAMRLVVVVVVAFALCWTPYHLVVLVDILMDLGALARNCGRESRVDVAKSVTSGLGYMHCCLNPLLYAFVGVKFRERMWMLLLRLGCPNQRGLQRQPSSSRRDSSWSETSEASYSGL
Procedure: a) CXCR3 Membrane Binding Assay
A ligand binding assay is used to identify inhibitors of I-TAC binding to CXCR3 expressing membranes. Cell membranes are prepared from CHO cells transfected with human CXCR3. The binding of the ^125I labeled CXCR3 ligand e.g. I-TAC (CXCL11) to CXCR3 is assessed using the Scintillation Proximity Assay (SPA) technology (Amersham Pharmacia Biotech). Buffer or serial dilutions of compound are incubated for 2 hours at room temperature with labeled CXCR3 ligand (e.g. I-TAC), CXCR3 expressing membranes and WGA coated PVT beads. The plates are then centrifuged and counted in a Topcount (Packard) instrument. The data are reported as the concentration of compound required to achieve 50% inhibition of ^125I ligand binding.

CXCR3 [2] = molecular target: T1, CXCR3; test: cell-based; set-up: expressed in transfected cells; host or cells: L1.2 cells (mouse pre-B cell line)
Procedure: b) CXCR3 Functional Assay—Ca^2+ Mobilization
CXCR3 ligand-induced Ca^2+ mobilization is assessed in CXCR3 transfected L1.2 cells (a mouse pre B cell line). For this, cells are loaded with the Ca^2+-sensitive fluorochrome Fluo-4 (Molecular Probes). After washing, the cells are pre-incubated with low molecular weight inhibitors for 2 h at room temperature. The transient increase in intracellular Ca^2+ after the addition of the CXCR3 ligand (e.g. I-TAC) is monitored in a fluorescence image plate reader (FLIPR) instrument. The inhibition of CXCR3 ligand induced Ca^2+ mobilization in the presence of CXCR3 antagonists is reported as IC50 values i.e. the concentration of compound which reduces the maximal Ca^2+ response to 50%.

CXCR3 [3] = molecular target: T1, CXCR3; test: CXCR3 functional assay - chemotaxis; format: cell-based; set-up: expressed in transfected cells; host or cells: L1.2 cells (mouse pre-B cell line); details: CXCR3 transfected L-1.2 cells; I-TAC; 4 h at 37° C.; read-out: IC50, concentration which leads to a reduction of migrated cells by 50%
Procedure: c) CXCR3 Functional Assay—Chemotaxis
The directed cell migration induced by CXCR3 ligands e.g. I-TAC is assessed using 96-well disposable chemotaxis chambers (Multiscreen MIC, Costar) with polycarbonate membranes containing pores of 5 μm diameter. Chemokine (e.g. I-TAC) is placed in the bottom well of the chamber and cells (e.g. CXCR3 transfected L-1.2 cells) are placed in the top compartment of the chemotaxis chamber. Cell migration across the porous membrane is allowed for 4 h at 37° C. Cells migrated from the top compartment to the bottom compartment are quantified by flow cytometry. When LMW inhibitors are tested, compounds are added to both compartments at the identical concentrations; Serial dilutions of compounds are tested to assess their inhibitory effect on CXCR3 dependent cell migration. The concentration of LMW CXCR3 inhibitors which leads to a reduction of migrated cells by 50% is reported as IC50. In this assay, the compounds of formula I have an IC50 value from 1 μM-1 nM.

[4] = membranes of CHO cells transfected with human CXCR3, 125I I-TAC (CXCL11), 2 hours at room temperature, read-out: IC50, concentration of compound required to achieve 50% inhibition of 125I ligand binding
[5] = CXCR3 transfected L1.2 cells (mouse pre B cell line), CXCR3 ligand (e.g. I-TAC), pre-incubation 2 h at room temperature, read-out: IC50, concentration of compound which reduces the maximal Ca2+ response to 50%

SMILES	IC50 (CXCR3 [1]; [4])	IC50 (CXCR3 [2]; [5])	IC50 (CXCR3 [1])	IC50 (CXCR3 [2])	IC50 (CXCR3 [3])
O=C([C@@H]1C=C2c3cccc4[nH]cc(c34)C[C@H]2N(C(=O)Nc2ccccc2)C1)N1CCC1 [Example 23]	0.061 µM	0.008 µM			
O=C([C@@H]1C=C2c3cccc4[nH]cc(c34)C[C@H]2N(C(=O)Nc2ccccc2)C1)N1CCOCC1 [Example 43]			0.023 µM	0.016 µM	0.075 µM
O=C([C@@H]1C=C2c3cccc4[nH]cc(c34)C[C@H]2N(C(=O)Nc2ccccc2F)C1)N1CCCC1 [Example 59]	0.043 µM	0.02 µM			
CC(C)OC(=O)Cn1cc2c3c(cccc31)C1=C[C@@H](C(=O)N3CCCC3)CN(C(=O)Nc3ccccc3)[C@@H]1C2 [Example 79, [(6aR,9R)-7-Phenylcarbamoyl-9-(pyrrolidine-1-carbonyl)-6a,7,8,9-tetrahydro-6H-indolo[4,3-fg]quinolin-4-yl]-acetic acid isopropyl ester]			0.145 µM	0.053 µM	
